According to patent US10125139B2, “Pesticidally active polycyclic derivatives with sulfur substituted five-membered ring heterocycles” (Syngenta Participations AG, priority 2015, dated 2018):

How the values were obtained:
Type in all cases: in vivo
[1] = tested on: Spodoptera littoralis (Egyptian Cotton Leaf Worm); test: Example B10: Spodoptera littoralis systemic activity, lettuce grown on treated agar; conditions: 144 h, test rate of 12.5 ppm, 6 days after infestation, read-out: effect in at least one of the three categories (mortality, anti-feeding, or growth inhibition)
Source text: Example B10: Spodoptera littoralis (Egyptian Cotton Leaf Worm) Systemic Activity
Test compounds were applied by pipette from 10,000 ppm DMSO stock solutions into 24-well plates and mixed with agar. Lettuce seeds were placed onto the agar and the multi well plate was closed by another plate which contained also agar. After 7 days the compound was absorbed by the roots and the lettuce grew into the lid plate. The lettuce leaves were then cut off into the lid plate. Spodoptera eggs were pipetted through a plastic stencil onto a humid gel blotting paper and the lid plate was closed with it. The samples were assessed for mortality, anti-feedant effect and growth inhibition in comparison to untreated samples 6 days after infestation. The following compounds gave an effect of at least 80% in at least one of the three categories (mortality, anti-feeding, or growth inhibition) at a test rate of 12.5 ppm: […]

[2] = tested on: Myzus persicae (Green Peach Aphid); test: Example B7: Myzus persicae intrinsic activity, sucrose solution through Parafilm; conditions: 120 h, test rate of 12 ppm, 5 days after infestation
Source text: Example B7: Myzus persicae (Green Peach Aphid). Intrinsic Activity
Test compounds prepared from 10,000 ppm DMSO stock solutions were applied by pipette into 24-well microtiter plates and mixed with sucrose solution. The plates were closed with a stretched Parafilm. A plastic stencil with 24 holes was placed onto the plate and infested pea seedlings were placed directly on the Parafilm. The infested plate was closed with a gel blotting paper and another plastic stencil and then turned upside down. The samples were assessed for mortality 5 days after infestation.

[3] = tested on: Plutella xylostella (Diamond Back Moth); test: Example B8: Plutella xylostella, artificial diet, L2 larvae; conditions: Plutella xylostella, 120 h; application rate of 200 ppm; 5 days after infestation; L2 larvae; read-out: effect in at least one of the two categories (mortality or growth inhibition)
Experimental: Example B8: Plutella xylostella (Diamond Back Moth)
(§1) 24-well microtiter plates with artificial diet were treated with aqueous test solutions prepared from 10,000 ppm DMSO stock solutions by pipetting. After drying, the plates were infested with L2 larvae (10 to 15 per well). The samples were assessed for mortality and growth inhibition in comparison to untreated samples 5 days after infestation. The following compounds gave an effect of at least 80% in at least one of the two categories (mortality or growth inhibition) at an application rate of 200 ppm:
(§2) Insecticidal action against Diabrotica balteata (Corn root worm), Plutella xylostella (Diamond black moth), and Spodoptera littoralis (Egyptian cotton leaf worm). The tests were carried out as described in biological examples B2, B8 and B9, respectively, with the larval feeding/contact activity (mortality only) being reported as Breakpoint (BP80) values in parts per million (i.e. the lowest concentration which gives 80% larval mortality).

[4] = tested on: Diabrotica balteata (Corn Root Worm); test: Example B2: Diabrotica balteata, sprayed maize sprouts, L2 larvae; conditions: Diabrotica balteata, 96 h; application rate of 200 ppm; 4 days after infestation; L2 larvae; read-out: effect in at least one of the two categories (mortality or growth inhibition)
Experimental: Example B2: Diabrotica balteata (Corn Root Worm)
as §1, with “Maize sprouts placed onto an agar layer in 24-well” for “24-well”, “plates” for “plates with artificial diet”, “spraying.” for “pipetting.”, “(6” for “(10”, “10” for “15”, “4” for “5”
as §2

[5] = tested on: Euschistus heros (Neotropical Brown Stink Bug); test: Example B3: Euschistus heros, sprayed soybean leaves, N2 nymphs; conditions: 120 h, application rate of 200 ppm, 5 days after infestation, read-out: effect in at least one of the two categories (mortality or growth inhibition)
Experimental: Example B3: Euschistus heros (Neotropical Brown Stink Bug)
Soybean leaves on agar in 24-well microtiter plates were sprayed with aqueous test solutions prepared from 10,000 ppm DMSO stock solutions. After drying the leaves were infested with N2 nymphs. The samples were assessed for mortality and growth inhibition in comparison to untreated samples 5 days after infestation. The following compounds gave an effect of at least 80% in at least one of the two categories (mortality or growth inhibition) at an application rate of 200 ppm: […]

[6] = tested on: Myzus persicae (Green Peach Aphid); test: Example B5: Myzus persicae feeding/contact activity, sunflower leaf discs; conditions: foliar, 144 h, application rate of 200 ppm, 6 days after infestation
Experimental: Example B5: Myzus persicae (Green Peach Aphid): Feeding/Contact Activity
Sunflower leaf discs were placed onto agar in a 24-well microtiter plate and sprayed with aqueous test solutions prepared from 10,000 ppm DMSO stock solutions. After drying, the leaf discs were infested with an aphid population of mixed ages. The samples were assessed for mortality 6 days after infestation.

[7] = tested on: Myzus persicae (Green Peach Aphid); test: Example B6: Myzus persicae systemic activity, pea seedling roots in test solution; conditions: 144 h, test rate of 24 ppm, 6 days after placing seedlings into test solutions
Experimental: Example B6: Myzus persicae (Green Peach Aphid). Systemic Activity
Roots of pea seedlings infested with an aphid population of mixed ages were placed directly into aqueous test solutions prepared from 10,000 DMSO stock solutions. The samples were assessed for mortality 6 days after placing seedlings into test solutions.

[8] = tested on: Spodoptera littoralis (Egyptian Cotton Leaf Worm); test: Example B9: Spodoptera littoralis, cotton leaf discs, L1 larvae; conditions: Spodoptera littoralis, foliar, 72 h; application rate of 200 ppm; 3 days after infestation; L1 larvae
Experimental: Example B9: Spodoptera littoralis (Egyptian Cotton Leaf Worm)
Cotton leaf discs were placed onto agar in 24-well microtiter plates and sprayed with aqueous test solutions prepared from 10,000 ppm DMSO stock solutions. After drying the leaf discs were infested with five L1 larvae. The samples were assessed for mortality, anti-feeding effect, and growth inhibition in comparison to untreated samples 3 days after infestation. Control of Spodoptera littoralis by a test sample is given when at least one of the categories mortality, anti-feedant effect, and growth inhibition is higher than the untreated sample.
as §2

[9] = tested on: Tetranychus urticae (Two-Spotted Spider Mite); test: Example B11: Tetranychus urticae feeding/contact activity, bean leaf discs; conditions: foliar, 192 h
Experimental: Example B11: Tetranychus urticae (Two-Spotted Spider Mite): Feeding/Contact Activity
Bean leaf discs on agar in 24-well microtiter plates were sprayed with aqueous test solutions prepared from 10,000 ppm DMSO stock solutions. After drying the leaf discs were infested with a mite population of mixed ages. The samples were assessed for mortality on mixed population (mobile stages) 8 days after infestation.

[10] = tested on: Frankliniella occidentalis (Western Flower thrips); test: Example B4: Frankliniella occidentalis feeding/contact activity, sunflower leaf discs; conditions: foliar, 168 h, application rate of 200 ppm, 7 days after infestation, population of mixed ages
Experimental: Example B4: Frankliniella occidentalis (Western Flower thrips): Feeding/Contact Activity
Sunflower leaf discs were placed on agar in 24-well microtiter plates and sprayed with aqueous test solutions prepared from 10,000 DMSO stock solutions. After drying the leaf discs were infested with a Frankliniella population of mixed ages. The samples were assessed for mortality 7 days after infestation.

[11] = tested on: Bemisia tabaci (Cotton White Fly); test: Example B1: Bemisia tabaci feeding/contact activity, cotton leaf discs; conditions: foliar, 144 h, application rate of 200 ppm, 6 days after incubation, adult white flies
Experimental: Example B1: Bemisia tabaci (Cotton White Fly): Feeding/Contact Activity
Cotton leaf discs were placed on agar in 24-well microtiter plates and sprayed with aqueous test solutions prepared from 10,000 ppm DMSO stock solutions. After drying the leaf discs were infested with adult white flies. The samples were checked for mortality 6 days after incubation.

CCSc1cc(I)sc1-c1nc2cc(SC(F)(F)F)ncc2n1C [Example I-7, 2-(3-ethylsulfanyl-5-iodo-2-thienyl)-3-methyl-6-(trifluoromethylsulfanyl)imidazo[4,5-c]pyridine]
≥ 80%: percent effect (mortality, anti-feeding or growth inhibition) at 12.5 ppm [1] | mortality at 12 ppm [2] | percent effect (mortality or growth inhibition) at 200 ppm [3] | percent effect (mortality or growth inhibition) at 200 ppm [4] | percent effect (mortality or growth inhibition) at 200 ppm [5] | mortality at 200 ppm [6]

CCS(=O)(=O)c1nc(C2CC2)sc1-c1nc2cc(C(F)(F)F)ncc2n1C [Example P-13, 2-cyclopropyl-4-ethylsulfonyl-5-[3-methyl-6-(trifluoromethyl)imidazo[4,5-c]pyridin-2-yl]thiazole]
≥ 80%: mortality at 24 ppm [7] | percent effect (mortality, anti-feeding or growth inhibition) at 12.5 ppm [1] | percent effect (mortality or growth inhibition) at 200 ppm [3] | percent control (mortality, anti-feedant effect or growth inhibition) at 200 ppm [8] | percent effect (mortality or growth inhibition) at 200 ppm [4] | mortality at 200 ppm [6]

CCS(=O)(=O)c1cc(I)sc1-c1nc2cc(C(F)(F)F)ncc2n1C [Example I-1, 2-(3-ethylsulfonyl-5-iodo-2-thienyl)-3-methyl-6-(trifluoromethyl)imidazo[4,5-c]pyridine]
≥ 80%: percent effect (mortality, anti-feeding or growth inhibition) at 12.5 ppm [1] | percent effect (mortality or growth inhibition) at 200 ppm [3] | percent control (mortality, anti-feedant effect or growth inhibition) at 200 ppm [8] | percent effect (mortality or growth inhibition) at 200 ppm [4] | mortality at 200 ppm [6] | mortality at 200 ppm [9]

CCSc1cc(-c2ccc(Cl)cc2)sc1-c1nc2cc(C(F)(F)F)ncc2n1C [Example P-6, 2-[5-(4-chlorophenyl)-3-ethylsulfanyl-2-thienyl]-3-methyl-6-(trifluoromethyl)imidazo[4,5-c]pyridine]
≥ 80%: percent effect (mortality or growth inhibition) at 200 ppm [3] | percent control (mortality, anti-feedant effect or growth inhibition) at 200 ppm [8] | percent effect (mortality or growth inhibition) at 200 ppm [4] | mortality at 200 ppm [10] | percent effect (mortality or growth inhibition) at 200 ppm [5] | mortality at 200 ppm [9]

CCSc1nc(C2CC2)sc1-c1nc2cc(C(F)(F)F)ncc2n1C [Example P-14, 2-cyclopropyl-4-ethylsulfanyl-5-[3-methyl-6-(trifluoromethyl)imidazo[4,5-c]pyridin-2-yl]thiazole]
≥ 80%: mortality at 12 ppm [2] | percent effect (mortality or growth inhibition) at 200 ppm [3] | percent control (mortality, anti-feedant effect or growth inhibition) at 200 ppm [8] | percent effect (mortality or growth inhibition) at 200 ppm [4] | mortality at 200 ppm [6] | mortality at 200 ppm [11]
